Data published in article PMC4234457, “Primary porcine proximal tubular cells as an alternative to human primary renal cells in vitro: an initial characterization” (BMC Cell Biology, 2013).
Structures can show the parent of a compound that is named as a salt. Where two headings read alike, the source gives them in different places.

Key:
Oat1 or Oat3 = assay: Transporter induction experiments (RT-PCR of transporter mRNA in PKC); format: cell-based, porcine
Procedure: For transporter induction experiments, freshly isolated PKC cells were seeded (total of 2 × 10^4 cells cm^-2) on 6-well ThinCert PET tissue culture inserts in standard culture medium and medium was changed every 48 hours. […] After 48 hours of exposure, samples for RNA extraction were prepared by standard trypsin-EDTA treatment followed by washing with PBS. Resulting cell pellets were snap-frozen and stored at -80°C until use.
Total RNA was prepared from cell pellets and minced pieces of tissue (rat kidney and porcine kidney cortex) via the phenol-chloroform method using Trizol (Invitrogen, Karlsruhe, Germany). Concentration and quality was estimated via 260/280 nm values. Representative samples were tested for RNA integrity via denaturing electrophoresis. cDNA was prepared using 1 μg total RNA, Oligo (dT)18 and M-MuLV reverse transcriptase according to manufacturer’s instructions. PCR was performed using 2 μl cDNA sample, 2 × PCR Master Mix, specific primers (Table 3). Amplification was performed with an initial denaturation step at 92°C for 3 min followed by 30 cycles of 94°C for 60 sec, 58°C for 60 sec and 72°C for 60 sec and a final extension step at 72°C for 7 min.

PKC [1] = assay: Inhibition of cellular PAH uptake in PKC; settings: 50 μM PAH, inhibitor 1 mM, 10 min; for Reduction of PAH BBM uptake: Figure 3A
Procedure: For transport studies, PKC were seeded (1 × 10^5 cells/cm^2) on 6-well PET filter inserts with 0.4 μm pore size. The use of filter inserts allows measurement of transport across the BLM (basolateral membrane) and the BBM (brushborder membrane) by addition of substrates to media in the lower and upper compartment, respectively. […] The cells were incubated at 37°C for the indicated times. […] Thereafter, cells were acidified with 1 M HCl and an aliquot was used for protein determination using the Bradford assay. 1 ml of medium from each compartment and of solubilized cells was placed into 10 ml scintillation cocktail and radioactivity was measured in a Beckman LS 6500 scintillation counter.

[2] = tested on: primary porcine kidney cells (PKC); assay: MTT reduction cytotoxicity assay in PKC; settings: for EC50: read-out: EC50 (cytotoxicity), 1-500 μM, positive control
Procedure: Cytotoxicity experiments using the MTT reduction assay as previously described, were conducted to estimate non-toxic concentrations for subsequent analyses. All chemicals and stock solutions (Tables 1 and 2) were sterilized by filtration (0.2 μm) prior to testing. […] Absorbance was read at 550 nm using a microplate reader (Infinite M200, Tecan, Crailsheim, Germany).
Conversely, in the transport induction experiments (prolonged substrate exposure/low concentrations, Table 2) cytotoxicity was determined after 24, 48, 72 and 96 hours of exposure. All assays were performed with the respective vehicle controls (Tables 1 and 2) and cadmium chloride as positive control.
Cytotoxicity data were calculated as means ± SEM from at least three independent replicate experiments conducted in technical duplicates, followed by a One-way ANOVA with a subsequent Dunnett’s multiple comparison test (P < 0.05).

pOat3 = settings: cited from earlier work; for Inhibitory effect on pOat3-mediated ES transport: oocytes
hOAT3 = settings: cited from earlier work
OAT3 (SLC22A8) = tested on: OAT3 (SLC22A8); set-up: method as in supplement 1; settings: Rat, cited from earlier work
pOat1 = settings: cited from earlier work; for Inhibition of pOat1-mediated PAH uptake: oocytes
hMRP4 = settings: hMRP4, MTX; cited from earlier work
hOAT4 = settings: hOAT4, MTX; cited from earlier work
PKC [3] = assay: Transport assays (kinetics): cellular uptake of radiolabelled PAH and MTX across BBM and BLM of PKC on filter inserts; format: in vitro ADME, porcine; settings: for Km: confluent PKC, 30 min incubation, mean ± SEM, n = 3
Procedure: For transport studies, tightness of the cellular monolayers was inspected microscopically before use. Additionally, radiolabelled substrates were measured in the both chambers (above and below the cell layer) to determine cell layer leakiness. In case of lacking or reduced tightness of the monolayer, very high counts (dpm) were measured in the respective opposite compartment. These resulting counts (dpm) were several-magnitudes greater than those that could have been expected from potential transepithelial transport. Data from cell preparations with such apparent cell layer leakiness were omitted from calculation.
For kinetic data, raw transport data (dpm) were submitted to intra-assay normalization using the blanks described above and calculated using the following equation:
meandpm×totalvolume/countedvolume×60sec×specificactivity×proteincontent×assaytime=substratepmol/mg×min

hOAT1 = settings: hOAT1, MTX; cited from earlier work
[4] = tested on: primary human proximal tubular cells; set-up: method as in PMID 16997449; settings: cited from earlier work
[5] = PKC, 50 nM or 1 μM to basolateral compartment, 48 hours, RT-PCR

For `O=C1OC(c2ccc(O)c(S(=O)(=O)O)c2)(c2ccc(O)c(S(=O)(=O)O)c2)c2c(Br)c(Br)c(Br)c(Br)c21` [bromosulphophthalein], the “Stimulatory effect on transporter mRNA expression” value (“Stimulatory effect” for short) (Oat1 or Oat3; [5]) was “none of the tested substances showed any stimulatory effect” and the “Reduction of PAH BBM uptake” value (PKC [1]) was “up to 30%”.

With `[Cl][Cd][Cl]` [cadmium chloride] the “Cytotoxicity on longer exposure” value ([2]; PKC, MTT, exposure >48 hours (data not shown)) was “did not result in further increased cytotoxicity”, the EC50 ([2]; PKC, MTT, 24 hours of exposure) was 103 µM and the EC50 ([2]; PKC, MTT, 48 hours of exposure) was 57.2 µM.

In the case of `C[C@]12CC[C@H](OS(=O)(=O)O)CC1=CC[C@@H]1[C@@H]2CC[C@]2(C)C(=O)CC[C@@H]12` [dehydroepi-androsteron sulfate], the “Stimulatory effect” value (Oat1 or Oat3; [5]) is given as “none of the tested substances showed any stimulatory effect” and the “Inhibitory effect on pOat3-mediated ES transport” value (“Inhibitory effect” for short) (pOat3) is given as “inhibitory effect”.

For `C[C@]12CC[C@@H]3c4ccc(OS(=O)(=O)O)cc4CC[C@H]3[C@@H]1CCC2=O` [estrone sulfate], the Km (pOat3; pOat3 expressed in X. laevis oocytes, read-out: apparent Km) is given as 7.8 ± 1.3 µM, the Km (hOAT3; hOAT3, ES, read-out: Km) is given as 3.1 to 9.5 µM and the “Inhibition of PAH uptake from either direction (BBM or BLM)” value (PKC [1]) is given as “not able to inhibit PAH uptake”. The Km (OAT3 (SLC22A8); ref supplement 1, read-out: KM (ES)) was 2.3 to 5.3 µM.

In the case of `O=C(O)CCCC(=O)O` [glutarate], the “Inhibition of pOat1-mediated PAH uptake” value (pOat1; 0.5 mM) is listed as “could be inhibited” and the “Inhibitory effect” value (pOat3) is listed as “inhibitory effect”.

For `CN(Cc1cnc2nc(N)nc(N)c2n1)c1ccc(C(=O)N[C@@H](CCC(=O)O)C(=O)O)cc1` [methotrexate], the Km (hMRP4) is given as 220 to 1300 µM, the Km (hOAT4) is given as 17.8 µM and the Cellular uptake (PKC [3]; PKC, radiolabelled substrate) is given as “negligible”. For the same molecule, the Km (hOAT3; hOAT3, MTX, read-out: Km) was 10.9 to 21.1 µM, the “Reduction of PAH BBM uptake” value (PKC [1]) was “up to 30%” and the Km (hOAT1) was 554 to 724 µM. For the same molecule, the Km ([4]; human kidney cells (HKC), hOAT1-associated, read-out: Km of MTX transport across the BBM) was 80.4 ± 3.4 µM and the Km ([4]; human kidney cells (HKC), hOAT1-associated, read-out: Km of MTX transport across the BLM) was 28.5 ± 1.1 µM.

With `C[C@@H]1Cc2c(Cl)cc(C(=O)N[C@@H](Cc3ccccc3)C(=O)O)c(O)c2C(=O)O1` [ochratoxin A] the “Reduction of PAH BBM uptake” value (PKC [1]) was “up to 30%”.

In the case of `Nc1ccc(C(=O)NCC(=O)O)cc1` [p-aminohippuric acid], the Km (pOat1; OAT1 (SLC22A6), Pig, ref supplement 1, 2, read-out: KM (PAH)) is listed as 3.7 µM, the “Affinity of the other pOat1 variant” value (pOat1; one pOat1 splice variant expressed in Xenopus laevis oocytes) is listed as “did not show any affinity” and the Km (pOat1; pOat1 variant expressed in Xenopus laevis oocytes, read-out: apparent Km) is listed as 3.75 ± 1.6 µM. For the same molecule, the “Time to saturation of PAH uptake” value (PKC [3]; PKC, 50 μM substrate, Figure 2B) was 5 to 10 min, the “BBM uptake compared to BLM uptake” value (PKC [3]; PKC, PAH uptake, Figure 2A) was “about 3 times” and the Km (PKC [3]; basolateral membrane, read-out: Km of PAH uptake across BLM) was 187 ± 70.2 µM. For the same molecule, the Km (PKC [3]; brushborder membrane, read-out: Km of PAH uptake across BBM) was 58.8 ± 12.6 µM, the Km (hOAT3; OAT3 (SLC22A8), Human, ref supplement 1, read-out: KM (PAH)) was 50 to 100 µM and the Km (OAT3 (SLC22A8); ref supplement 1, read-out: KM (PAH)) was 60 to 65 µM. For the same molecule, the Km ([4]; primary human proximal tubular cells, read-out: BBM Km of PAH uptake) was 36.6 ± 1.2 µM and the Km ([4]; primary human proximal tubular cells, read-out: BLM Km of PAH uptake) was 57.5 ± 4.1 µM.

In the case of `CCCN(CCC)S(=O)(=O)c1ccc(C(=O)O)cc1` [probenecid], the “Inhibition of pOat1-mediated PAH uptake” value (pOat1; 1 mM) is given as “could be inhibited”, the “Inhibitory effect” value (pOat3) is given as “inhibitory effect” and the “Inhibition of PAH uptake from either direction (BBM or BLM)” value (PKC [1]) is given as “did not show any inhibitory effect”.

With `C[C@H](CCC(=O)NCCS(=O)(=O)O)[C@H]1CC[C@H]2[C@@H]3[C@H](O)C[C@@H]4C[C@H](O)CC[C@]4(C)[C@H]3C[C@H](O)[C@]12C` [taurocholic acid] the “Stimulatory effect” value (Oat1 or Oat3) was “none of the tested substances showed any stimulatory effect” and the “Significant effects (cytotoxicity of potential transporter inducers)” value [2] was “no”.

For `N[C@@H](Cc1cc(I)c(Oc2ccc(O)c(I)c2)c(I)c1)C(=O)O` [triiodothyronine], the “Stimulatory effect” value (Oat1 or Oat3; [5]) was “none of the tested substances showed any stimulatory effect”.
